A short description of data set [1]: NOVARTIS: Cytotoxicity against human hepatocellular carcinoma cell line (Huh7). The class given is toxicity, cell-based, Huh-7. The conditions noted are these: Huh7 cells (hepatocellular carcinoma cell line).
Data set [2] relates to Plasmodium falciparum. Nature of the data set: NOVARTIS: Inhibition of Plasmodium falciparum 3D7 (drug-susceptible) proliferation in erythrocyte-based infection assay. The class given is functional, organism-based. The conditions noted are these: Plasmodium falciparum, 3D7.
Data set [3] has as its system Plasmodium falciparum. Put plainly: NOVARTIS: Inhibition of Plasmodium falciparum W2 (drug-resistant) proliferation in erythrocyte-based infection assay. Type of data set: functional, organism-based. To be noted: Plasmodium falciparum, W2; read-out: EC50.

On to `NC(=O)Cc1ccccc1`, for which the CC50 in data set [1] was more than 100 µM. Moreover, the EC50 was more than 12.5 µM in data set [2] and 9.5 µM in data set [3].
For `O=C(c1ccccc1)c1cc(Cl)ccc1NCCBr` the same measures were more than 10 µM, more than 1.25 µM and more than 0.955 µM.
The compound `O=C(O)c1cccc(N2N=C(c3ccccc3)CC2=O)c1` registered a CC50 in data set [1] of more than 100 µM. Also, the results for the concentration giving a half-maximal response (EC50) in data set [2] and in data set [3] were more than 12.5 µM and more than 9.63 µM, respectively.
In data set [1], `Oc1ccc(-c2cncc(NCc3ccc4c(c3)OCO4)c2)cc1` gave a 50% cytotoxic concentration (CC50) of more than 10 µM. Further, the results for the EC50 in data set [2] and in data set [3] were 1.17 µM and 0.96 µM, respectively.
`O=C1C2CN(C(=O)Nc3ccccc3)C(c3ccc(Cl)cc3)C2C(=O)N1c1ccccc1` (centres undefined) registered a CC50 in data set [1] of more than 10 µM. Moreover, the figures for the EC50 in data set [2] and in data set [3] were more than 1.25 µM and more than 0.958 µM, respectively.
For `O=C(Nc1ccccc1)/C(=C\c1ccncc1)NC(=O)c1ccccc1` the same measures were more than 10 µM, more than 1.25 µM and more than 0.955 µM.
With `CC(C)Nc1nc(-c2cccnc2)nc2ccccc12`, the 50% cytotoxic concentration (CC50) in data set [1] was more than 10 µM. The figures for the EC50 in data set [2] and in data set [3] were more than 0.829 µM and more than 0.955 µM, respectively.
In data set [1], `COc1ccc(OC)c(-c2ccc(O)c(CNC3CCCCC3)c2)c1` yielded a CC50 of more than 10 µM. The EC50 in data set [2] was 0.842 µM; in data set [3], 0.953 µM.
For `COc1ccc(CNC(=O)c2ccc3c(c2)N=C(/C=C/c2ccccc2)N(CCN2CCOCC2)C3)cc1` the same measures were more than 10 µM, 0.79 µM and more than 0.949 µM.
Compound `COc1ccc(OC)c(-c2ccc(O)c(CNC3CCCCCCC3)c2)c1` gave a CC50 in data set [1] of more than 10 µM. In addition, the EC50 in data set [2] is 0.767 µM; in data set [3], 0.952 µM.
The compound `O=c1c2c3c(sc2ncn1Cc1cccc(Cl)c1)CC(N1CCCCC1)CC3` (centres undefined) came in with a half-maximal cytotoxic concentration (CC50) in data set [1] of 27.8 µM. Further, the 50% effective concentration (EC50) stood at 2.95 µM in data set [2] and 2.64 µM in data set [3].
The compound `Cc1ccc(NC=C2C(=O)NC(=S)NC2=O)cc1` yielded a CC50 in data set [1] of more than 100 µM. Also, the EC50 in data set [2] is more than 12.5 µM; in data set [3], more than 9.49 µM.
As to `COCC(=O)NC(c1ccccc1)c1cc(Cl)c2cccnc2c1O` (centres undefined), the CC50 in data set [1] was more than 10 µM. The EC50 in data set [2] amounted to 1.05 µM; in data set [3], 0.95 µM.
For `Nc1nc(N)nc(C(c2ccccc2)c2ccccc2)n1` the same measures were more than 13.2 µM, 1.09 µM and more than 1.25 µM.
For `COc1ccc(/C=C2\N=C(c3ccc(Cl)cc3)N(c3cc(Cl)ccc3C)C2=O)cc1OC` the same measures were more than 10 µM, more than 1.25 µM and more than 0.949 µM.
`Cc1ccccc1CSc1ccc(-c2cccs2)nn1` came in with a CC50 in data set [1] of more than 10 µM. Also, the figures for the EC50 in data set [2] and in data set [3] were more than 1.05 µM and 0.963 µM, respectively.
For `COc1ccc2c(c1)sc1nc(C)c(C)c(C)[n+]12`, the cytotoxic concentration (CC50) in data set [1] was more than 10 µM. Further, the 50% effective concentration (EC50) in data set [2] was 0.688 µM; in data set [3], more than 0.952 µM.
In data set [1], `Cc1ccc(Nc2cc(C)nc(NCc3ccccc3)n2)c(C)c1` returned a half-maximal cytotoxic concentration (CC50) of 6.51 µM. The EC50 in data set [2] amounted to 0.306 µM; in data set [3] it was 0.619 µM.
As for `O=C1NN=C2C1=NC1(CCCCC1)Cc1ccccc12`, the CC50 in data set [1] came to 3.9 µM. The EC50 in data set [2] was determined as 0.325 µM; in data set [3] it was 0.376 µM.
In data set [1], `S=C(NN=Cc1ccccn1)NC1CC2CC1C1C=CCC21` (centres undefined) yielded a CC50 of more than 1.14 µM. The EC50 in data set [2] was found to be 0.123 µM; in data set [3], 0.109 µM.
In data set [1], `c1cncc(-c2cc(NCCCn3ccnc3)nc(-c3ccncc3)n2)c1` yielded a CC50 of more than 10 µM. Further, the EC50 in data set [2] turned out to be 1.09 µM; in data set [3], 0.956 µM.
For the compound `O=C(Cn1c(=O)oc2cc(S(=O)(=O)NCc3ccccc3)ccc21)NC1CCCCC1`, in data set [1], the CC50 was more than 10 µM. Moreover, the concentration giving a half-maximal response (EC50) was more than 1.25 µM in data set [2] and more than 0.955 µM in data set [3].
`O=C(Nc1cc(C(F)(F)F)ccc1OCc1ccccc1)c1ccccc1O` yielded a CC50 in data set [1] of more than 10 µM. Moreover, the concentration for a half-maximal effect (EC50) was more than 1.25 µM in data set [2] and 0.949 µM in data set [3].
